Source: ChEMBL document CHEMBL3045820, “Discovery of a novel histone deacetylase 8 inhibitor by virtual screening” (Med Chem Res, 2012)

Biological target: T1, Histone deacetylase 8 (Homo sapiens, UniProt Q9BY41)
T1 sequence (Q9BY41 whole entry): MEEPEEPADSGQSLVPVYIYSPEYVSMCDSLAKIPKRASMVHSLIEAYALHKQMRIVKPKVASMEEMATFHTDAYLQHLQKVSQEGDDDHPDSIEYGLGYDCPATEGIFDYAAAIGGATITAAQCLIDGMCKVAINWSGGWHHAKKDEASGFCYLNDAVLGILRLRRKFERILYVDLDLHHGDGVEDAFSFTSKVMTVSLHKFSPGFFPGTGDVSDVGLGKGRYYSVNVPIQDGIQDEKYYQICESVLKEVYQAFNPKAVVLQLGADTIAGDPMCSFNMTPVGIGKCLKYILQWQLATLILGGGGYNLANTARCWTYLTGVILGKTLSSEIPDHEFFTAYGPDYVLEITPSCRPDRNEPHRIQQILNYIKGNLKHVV
Assay: Inhibition of HDAC8 (unknown origin) expressed in Escherichia coli using Boc-Lys (acetyl)-AMC as substrate incubated for 5 min prior to substrate addition measured after 30 min by fluorescence assay

IC50: 1600 nM
SMILES: COc1cc(C(=O)NN)ccc1COc1ccc(Cl)c(C)c1
